Source: patent publication EP1949899A1, “Metal salophen complexes use in prevention and treatment of cancer” (Freie Universität Berlin, priority 2007, dated 2008)
Like-named read-outs stand apart in the source and are kept apart here.

Key:
MCF-7-cells = assay: Concentration dependent cytotoxicity test (IC50) on MCF-7 cells; type: cell-based
Description: (§1) Measurement of IC50-values was performed as described by Ott, I. et al., Journal of Medicinal Chemistry, 2005, 48 (2): 622-629. But unlike described in the literature, the experiments with MCF-7-cells were stopped after 96 hours and experiments with MDA-MB-231-cells were stopped after 72 hours.

MDA-MB-231-cells = assay: Concentration dependent cytotoxicity test (IC50) on MDA-MB-231 cells; type: cell-based
Description: as §1

LNCaP-FGC-cells = assay: Time dependent test (crystal violet assay) on LNCaP-FGC-cells; type: cell-based
Description: The time dependent tests were performed according to Reile, H. et al.: "Computerized Determination of Growth Kinetic Curves and Doubling Times from Cells in Microculture", Analytical Biochemistry, 1990, 187 (2): 262-267; Bernhardt, G. et al.: "Standardized kinetic microassay to quantifiy differential chemosensitivity on the basis of proliferative activity", Journal of Research Clin. Oncol., 1992, 118: 35-43 and Gust, R. et al.: "Development of Cobalt(3,4-diarylsalen) Complexes as Tumor Therapeutics", Journal of Medicinal Chemistry, 2004, 47 (24): 5837-5846.
Determining the cell mass in the crystal violet assay the interpretation of the received values was the following: […]

MCF-7 cells [1] = settings: Ghezzi, A. et al., 2004; cited from earlier work
MDA-MB-231 cells = assay: Time dependent test (crystal violet assay) on MDA-MB-231 cells; type: cell-based
[2] = test system: supercoiled plasmid DNA (pSK Bluescript); assay: DNA cleavage reactions with plasmid DNA on agarose gels; type: biochemical; settings: for DNA cleaving effect: 1 h at 37 °C
Description: General procedure for DNA cleavage reactions with plasmid DNA on agarose gels
100 µl reaction mixture contained 1 µg of supercoiled plasmid DNA (pSK Bluescript) in a tris-HCI buffer at pH 7.0, 1 µl of iron complex solution at the desired concentration (10 mM to 10 µM in DMSO) and in some cases 1 µl of 100 µM dithiothreitol solution resp. 1 µl of 1 mM mercaptoethanol solution. After incubation at 37 °C for the indicated time, 1 µl of loading buffer (0.25 % bromophenol blue, 0,25 % xylene cyanol, 30 % glycerin in H2O) was added to 5 µl reaction mixture (containing 50 ng plasmid DNA) and subsequently loaded onto a 0.8 % agarose gel. One µl of 1 kb-DNA-ladder (NewEnglandBiolabs, #N3232L) was loaded for estimation of size and amount of loaded DNA sample. The electrophoresis was carried out for ~ 45 min at 100 V in TBE buffer at pH 8.3. Gels were stained with etidium bromide (1 µg/ml) and photographed under 254 nm UV light.

MCF-7 cells [3] = assay: Time dependent test (crystal violet assay) on MCF-7 cells; type: cell-based
HeLa cells = assay: Time dependent test (crystal violet assay) on HeLa cells; type: cell-based
[4] = Homo sapiens, MCF7, MCF-7, stopped after 96 hours, read-out: IC50
[5] = Homo sapiens, MDA-MB-231, stopped after 72 hours, read-out: IC50
[6] = MCF-7, stopped after 96 hours, read-out: IC50
[7] = MDA-MB-231, stopped after 72 hours, read-out: IC50
[8] = higher concentrations (1-10 µM)
[9] = low concentrations (0,1 µM), in the presence of a reducing agent

O=c1[nH]cc(F)c(=O)[nH]1 [5-fluorouracil]
IC50 (MCF-7-cells; [4]): 4.8 µM | IC50 (MDA-MB-231-cells; [5]): 9.6 µM

N.N.O=C([O-])C1(C(=O)[O-])CCC1.[Pt+2] [Carboplatin]
minimum T/Ccorr- resp. τ-value (LNCaP-FGC-cells; 0.5 µM): 69.5% | minimum T/Ccorr- resp. τ-value (LNCaP-FGC-cells; 1 µM): 55.5% | minimum T/Ccorr- resp. τ-value (LNCaP-FGC-cells; 5 µM): 19.6% | enrichment in comparison with the outer medium (MCF-7 cells [1]): 1,6

C#CCOC(=O)c1ccccc1OC(C)=O.[C-]#[O+].[C-]#[O+].[C-]#[O+].[C-]#[O+].[C-]#[O+].[C-]#[O+].[Co].[Co] [Co-Ass, Hexacarbonyl[2-propyn-1-ylacetylsalicylat]dicobalt]
IC50 (MCF-7-cells; [6]): 1.4 µM | IC50 (MDA-MB-231-cells; [7]): 1.9 µM

[Fe+2].[O-]c1ccccc1C=Nc1ccccc1N=Cc1ccccc1[O-] [Fe(II)salophen, [N,N'-Bis(salicylidene)phenylene-1,2-diamine]-iron(II)]
minimum T/Ccorr- resp. τ-value (LNCaP-FGC-cells; 0.1 µM): 47.3% | minimum T/Ccorr- resp. τ-value (LNCaP-FGC-cells; 0.5 µM): 8.9% | minimum T/Ccorr- resp. τ-value (LNCaP-FGC-cells; 1 µM): -25.6% | minimum T/Ccorr- resp. τ-value (MDA-MB-231 cells; MDA-MB-231, 0.05 µM): 90.0% | minimum T/Ccorr- resp. τ-value (MDA-MB-231 cells; MDA-MB-231, 0.1 µM): 41.9% | minimum T/Ccorr- resp. τ-value (MDA-MB-231 cells; MDA-MB-231, 0.5 µM): -19.1% | minimum T/Ccorr- resp. τ-value (MDA-MB-231 cells; MDA-MB-231, 1 µM): -29.7% | IC50 (MCF-7-cells; [6]): 0.4 µM | IC50 (MDA-MB-231-cells; [7]): 0.1 µM | DNA cleaving effect [2, 8]: DNA double strand breakages | DNA cleaving effect [2, 9]: DNA single strand breakages | minimum T/Ccorr- resp. τ-value (MCF-7 cells [3]; MCF-7, 0.05 µM): 96.5% | minimum T/Ccorr- resp. τ-value (MCF-7 cells [3]; MCF-7, 0.1 µM): 96.7% | minimum T/Ccorr- resp. τ-value (MCF-7 cells [3]; MCF-7, 0.5 µM): 35.7% | minimum T/Ccorr- resp. τ-value (MCF-7 cells [3]; MCF-7, 1 µM): -35.9%

[Cl-].[Fe+3].[O-]c1ccccc1C=Nc1ccccc1N=Cc1ccccc1[O-] [Fe(III)salophen chloride, [N,N'-Bis(salicylidene)phenylene-1,2-diamine]-iron(III)-chloride]
minimum T/Ccorr- resp. τ-value (LNCaP-FGC-cells; 0.1 µM): 34.4% | minimum T/Ccorr- resp. τ-value (LNCaP-FGC-cells; 0.5 µM): 3.6% | minimum T/Ccorr- resp. τ-value (LNCaP-FGC-cells; 1 µM): -19.5% | minimum T/Ccorr- resp. τ-value (MDA-MB-231 cells; MDA-MB-231, 0.05 µM): 46.0% | minimum T/Ccorr- resp. τ-value (MDA-MB-231 cells; MDA-MB-231, 0.1 µM): 66.2% | minimum T/Ccorr- resp. τ-value (MDA-MB-231 cells; MDA-MB-231, 0.5 µM): -27.8% | minimum T/Ccorr- resp. τ-value (MDA-MB-231 cells; MDA-MB-231, 1 µM): -40.8% | IC50 (MCF-7-cells; [6]): 0.3 µM | IC50 (MDA-MB-231-cells; [7]): 0.01 µM | DNA cleaving effect [2, 8]: DNA double strand breakages | DNA cleaving effect [2, 9]: DNA single strand breakages | minimum T/Ccorr- resp. τ-value (HeLa cells; 0.1 µM): 36.2% | minimum T/Ccorr- resp. τ-value (HeLa cells; 0.5 µM): 52.1% | minimum T/Ccorr- resp. τ-value (HeLa cells; 1 µM): -26.0% | minimum T/Ccorr- resp. τ-value (MCF-7 cells [3]; MCF-7, 0.05 µM): 92.6% | minimum T/Ccorr- resp. τ-value (MCF-7 cells [3]; MCF-7, 0.1 µM): 80.4% | effect on cell mass (interpretation of T/Ccorr resp. τ) (MCF-7 cells [3]; MCF-7, 0.5 µM): cytocide effect (T/Ccorr or τ < 0 %) | minimum T/Ccorr- resp. τ-value (MCF-7 cells [3]; MCF-7, 0.5 µM): -23.4% | minimum T/Ccorr- resp. τ-value (MCF-7 cells [3]; MCF-7, 1 µM): -50.8%

CC(=O)[O-].CC(=O)[O-].[Fe+2] [Fe(OAc)2]
IC50 (MCF-7-cells; [6]): > 50 µM | IC50 (MDA-MB-231-cells; [7]): > 50 µM

[Cl][Fe]([Cl])[Cl] [FeCl3]
IC50 (MCF-7-cells; [6]): > 100 µM | IC50 (MDA-MB-231-cells; [7]): > 100 µM

N[C@@H](Cc1ccc(N(CCCl)CCCl)cc1)C(=O)O [Melphalan]
IC50 (MCF-7-cells; Homo sapiens, MCF7, 96 h): 5.7 µM | IC50 (MDA-MB-231-cells; Homo sapiens, MDA-MB-231, 72 h): 3.9 µM

O=C1[O][Pt]2([NH][C@@H]3CCCC[C@H]3[NH]2)[O]C1=O [Oxaliplatin]
minimum T/Ccorr- resp. τ-value (LNCaP-FGC-cells; 0.5 µM): 12.7% | minimum T/Ccorr- resp. τ-value (LNCaP-FGC-cells; 1 µM): -0.6% | minimum T/Ccorr- resp. τ-value (LNCaP-FGC-cells; 5 µM): -31.0% | enrichment in comparison with the outer medium (MCF-7 cells [1]): sixfold

N.N.[Cl][Pt][Cl] [cisplatin, reference compound]
minimum T/Ccorr- resp. τ-value (LNCaP-FGC-cells; 0.5 µM): 59.0% | minimum T/Ccorr- resp. τ-value (LNCaP-FGC-cells; 1 µM): 32.7% | minimum T/Ccorr- resp. τ-value (LNCaP-FGC-cells; 5 µM): 6.7% | minimum T/Ccorr- resp. τ-value (MDA-MB-231 cells; MDA-MB-231, 0.5 µM): 79.7% | minimum T/Ccorr- resp. τ-value (MDA-MB-231 cells; MDA-MB-231, 1 µM): 69.0% | IC50 (MCF-7-cells; [6]): 2 µM | enrichment in comparison with the outer medium (MCF-7 cells [1]): fivefold | IC50 (MDA-MB-231-cells; [7]): 4 µM | minimum T/Ccorr- resp. τ-value (HeLa cells; 0.5 µM): 55.9% | minimum T/Ccorr- resp. τ-value (HeLa cells; 1 µM): 33.5% | minimum T/Ccorr- resp. τ-value (MCF-7 cells [3]; MCF-7, 0.5 µM): 55.1% | minimum T/Ccorr- resp. τ-value (MCF-7 cells [3]; MCF-7, 1 µM): 2.2%

Oc1ccccc1C=Nc1ccccc1N=Cc1ccccc1O [ligand, N,N'-bis(salicylidene)-phenylene-1,2-diamine, reference compound]
DNA decomposition ([2]; 1 h incubation at 37 °C, with or without additional reducing agents (DTT, 2-ME)): not able to decompose DNA

Nc1ccccc1N [o-phenylenediamine]
IC50 (MCF-7-cells; [4]): 5.1 µM | IC50 (MDA-MB-231-cells; [5]): 23.5 µM
